Results taken from PubChem BioAssay (NCI).
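1) Cells in 96-well plates. 2) Compound, 48 h, 5 concentrations. 3) Linear interpolation between surrounding doses. 4) Unreached endpoint = highest concentration. GI50 = concentration required for 50% inhibition of growth. Definition used: TGI = concentration required for complete inhibition of growth.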

Legend:
Test in all cases: NCI tumour cell line growth inhibition, 48 h
BT-549 breast = tested on: BT-549 breast
IGROV1 ovarian = tested on: IGROV1 ovarian
K-562 leukemia = tested on: K-562 leukemia
OVCAR-4 ovarian = tested on: OVCAR-4 ovarian
PC-3 prostate = tested on: PC-3 prostate
SF-539 CNS = tested on: SF-539 CNS
U251 CNS = tested on: U251 CNS
UACC-62 melanoma = tested on: UACC-62 melanoma
UO-31 renal = tested on: UO-31 renal
RXF 393 renal = tested on: RXF 393 renal

Structure (SMILES)	GI50 (BT-549 breast) [µM]	TGI (BT-549 breast) [µM]	GI50 (IGROV1 ovarian) [µM]	TGI (IGROV1 ovarian) [µM]	GI50 (K-562 leukemia) [µM]	TGI (K-562 leukemia) [µM]	GI50 (OVCAR-4 ovarian) [µM]	TGI (OVCAR-4 ovarian) [µM]	GI50 (PC-3 prostate) [µM]	TGI (PC-3 prostate) [µM]	GI50 (SF-539 CNS) [µM]	TGI (SF-539 CNS) [µM]	GI50 (U251 CNS) [µM]	TGI (U251 CNS) [µM]	GI50 (UACC-62 melanoma) [µM]	TGI (UACC-62 melanoma) [µM]	GI50 (UO-31 renal) [µM]	TGI (UO-31 renal) [µM]	TGI (RXF 393 renal) [µM]	GI50 (RXF 393 renal) [µM]
O=C(Nc1cccc(Cl)c1Cl)c1cccc(NC2=C(Cl)C(=O)N(Cc3ccccc3)C2=O)c1	15.7	84.5	11.7	59.6	5.32	37.5	57.7	> 100	26.9	97.4	9.87	40.6	46.2	> 100	22.2	> 100	21.1	> 100	–	–
NC(N)=N/N=C/c1cc(Cl)cc(Cl)c1O	–	–	–	> 100	–	> 100	–	> 100	–	> 100	–	> 100	–	> 100	–	> 100	–	> 100	> 100	–
CN=NN(C)C(=O)NC	–	–	–	> 100	–	> 100	–	> 100	–	–	–	> 100	–	> 100	–	> 100	–	> 100	> 100	–
COc1ccc(C(=O)C(CO)Oc2ccccc2OC)cc1OC (stereo unspecified)	–	–	–	> 100	–	> 100	–	> 100	–	–	–	> 100	–	> 100	–	> 100	–	> 100	–	–
COc1cc(/C=C2\C(=O)Nc3ccc(F)cc32)cc(OC)c1OC	22.7	> 100	8.44	> 100	5.67	> 100	60	> 100	40.4	> 100	> 100	> 100	13.5	49.4	11.7	> 100	11.9	> 100	–	–
COC(=O)/C=C/C1C(C(=O)OC)C2(C(=O)OC)CCC1(C(=O)OC)N2 (stereo unspecified)	–	–	–	> 100	–	> 100	–	> 100	–	–	–	> 100	–	> 100	–	> 100	–	> 100	> 100	–
CC1=C(C(=O)Nc2c(C)cccc2C)C(c2ccccc2Cl)C(C(=O)Nc2c(C)cccc2C)=C(C)N1	–	–	–	> 100	–	> 100	–	> 100	–	–	–	> 100	–	> 100	–	–	–	> 100	> 100	–
N#C/C(=C\c1ccc(O)c(O)c1)C(N)=O	–	–	–	> 100	–	> 100	–	> 100	–	–	–	> 100	–	> 100	–	> 100	–	> 100	51.6	–
CN(C)Cc1c[nH]c2c1C(=O)c1c(c(O)c3ccccc3c1O)C2=O	13.7	26.5	3.34	37.2	2.24	> 100	20.1	42.6	5.71	22.2	–	–	5.56	18.7	16.3	30.1	8.6	29.5	25.5	9.48
